Legend:
Assay type in all cases: cell-based
[1] = system: Human ES cell lines KhES-1; assay: Subculture of human ES cells in medium comprising a GSK3β inhibitor and a DYRK inhibitor, cell observation; settings: KhES-1, no feeder cells, vitronectin-N-coated dish; for maintenance of the ES cells (stability), among the GSK3β inhibitors: combined with DYRK inhibitor ID-8 500 nM, 1-azakenpaullone 750 nM, kenpaullone 500 nM
Experimental: 25 mL of a solution in which a powder DMEM/F-12 medium (D0547, produced by Sigma-Aldrich) had been diluted two-fold with water, 1.4 mL of 6% sodium hydrogen carbonate solution, 0.75 mL of 1 M HEPES solution, 0.045 mL of 0.23 M ascorbic acid solution, 0.9 ML of ITS (Insulin-Transferrin-Selenium: 1 mg/ml-0.55 mg/ml-0.7 μg/ml) solution (ITS-G 41400-045, produced by Life Technologies), and 16.905 mL of water were mixed to obtain 45 mL of basal medium (340 mOsm, pH 7.2 to 7.5).
A GSK3β inhibitor (1-azakenpaullone (A3734, produced by Sigma-Aldrich), kenpaullone (1094-1, produced by BioVision), CHIR99021 (1386, produced by Axon Medchem), or BIO (B1686, produced by Sigma-Aldrich)), and a DYRK inhibitor (ID-8 (11786, produced by Sigma-Aldrich), harmine (Ser. No. 10/010,324, produced by Cayman Chemical), an indirubin analog 716 (6i) (ACS Medicinal Chemistry Letters, 2013, vol. 4, no. 1, pp. 22-26), INDY (405273, produced by Merck Millipore Corporation), L41 (MR-00023, produced by AdipoGen), or TG003 (4336, produced by R&D Systems)) were each added singly or in combination to the basal medium to thereby obtain a medium. The following are final concentrations in the medium.
Human ES cell lines KhES-1 (provided by Riken BioResource Center) were subcultured in the above medium. More specific details are below. The following culture was performed in the absence of feeder cells in a dish (vitronectin-N-coated dish) in which coating treatment was performed overnight using 1 μg of vitronectin-N (A14700 produced by Life Technologies) per 1 cm^2 of the culture dish.
ES cell colonies cultured in accordance with a standard method using a general-purpose medium for human ES cells (20% knockout serum replacement (10828-028, produced by Life Technology), 4 ng/ml of FGF2 (100-18B, produced by Peprotech)/DMEM/F-12 medium (11330-032, produced by Life Technology)) were rinsed once with PBS. A dispase solution (10 mg/ml dispase (Ser. No. 17/105,041, produced by Life Technologies)/DMEM/F-12) was added thereto so as to cover the cells, followed by being left to stand for 5 minutes. […]

[2] = system: Human ES cell lines KhES-1; assay: Fold increase of cells within 6 days without passage
Experimental: (§1) A medium further comprising an NFAT inhibitor (tacrolimus (FK-506) (1007965, produced by Cayman Chemical)), in addition to a GSK3β inhibitor (1-azakenpaullone or kenpaullone) and a DYRK inhibitor (ID-8), was prepared as in Example 1. Using this medium, subculture and cell observation were performed as in Example 1. Separately from this, passage P1 was performed using this medium, as in Example 1, followed by culturing for 6 days without performing passage. Thereafter, the number of the cells was counted in accordance with a standard method, and, based on the counted number of cells, how many times the number of the cells increased within 6 days was calculated.

[3] = system: Human ES cell lines KhES-1; assay: Subculture and cell observation in medium further comprising an NFAT inhibitor; settings: tacrolimus added in addition to azakenpaullone and ID-8, FIG. 3A
Experimental: as §1

SMILES: O=C1Cc2c([nH]c3ccc(Br)cc23)-c2ccccc2N1 [kenpaullone]
- maintenance of the ES cells (stability), among the GSK3β inhibitors [1]: most stable manner

SMILES: O=C1Cc2c([nH]c3ccc(Br)cc23)-c2ncccc2N1 [1-azakenpaullone]
- maintenance of the ES cells (stability), among the GSK3β inhibitors [1]: most stable manner
- cell growth (fold increase of the cells), comparison of GSK3β inhibitors ([2]; GSK3β inhibitor with ID-8 and tacrolimus, FIG. 3B): accelerates the cell growth more than kenpaullone

SMILES: C=CC[C@@H]1/C=C(\C)C[C@H](C)C[C@H](OC)[C@H]2O[C@@](O)(C(=O)C(=O)N3CCCC[C@H]3C(=O)O[C@H](/C(C)=C/[C@@H]3CC[C@@H](O)[C@H](OC)C3)[C@H](C)[C@@H](O)CC1=O)[C@H](C)C[C@@H]2OC [tacrolimus]
- maintenance of ES cells in an undifferentiated state [3]: ES cells are maintained in an undifferentiated state
- cell growth (fold increase of the cells) ([2]; tacrolimus added in addition to azakenpaullone and ID-8, FIG. 3B): notably accelerated

SMILES: COc1ccc(-n2c(C)c([N+](=O)[O-])c3ccc(O)cc32)cc1 [ID-8]
- maintenance of the ES cells (stability), among the DYRK inhibitors ([1]; combined with 1-azakenpaullone 750 nM, ID-8 500 nM): most stable manner

Source: patent US11015169B2, “Culture medium for pluripotent stem cells” (Kyoto University, priority 2014, dated 2021)
